The subject of experiment [1] is rabbit peritoneal neutrophils. The settings on record: cited from earlier work.
Experiment [2] concerns rabbit peritoneal neutrophils. Description: Assay of relative migratory. The format is cell-based. The following applies: for activity relative to F-Met-Leu as stated in running text: rounded in text from Table II; for times as active as F-Met-Leu, experiment of Fig. 1: single representative experiment (Fig. 1).
Experiment [3] concerns rabbit neutrophils. The format is cell-based. The settings on record: for induction of lysozyme release at highest concentrations: at concentrations of 1 x 10-~ M or higher (so in the source).
The subject of experiment [4] is rabbit neutrophils. The format is cell-based. The settings on record: for beta-Glucuronidase release Relative activity ± SE: Table III, relative to F-Met-Leu = 1.0; for induction of beta-glucuronidase release at highest concentrations: at concentrations of 1 x 10-~ M or higher (so in the source).
Another experiment concerns neutrophils. The following applies: appears competitive; cited from earlier work.
In experiment [5] the test system is rabbit peritoneal neutrophils. Description: Test of whether the peptides are chemotactic. The format is cell-based. The following applies: for nature of induced migration: directed as well as random locomotion.

Consider `CC(C)C[C@H](NC=O)C(=O)O` [F-leucine], for which, in experiment [1] (not as active as F-methionine), the chemotactic activity result is listed as “chemotactic”.

As to F-Leu-Trp-Met-Arg, in experiment [2] (chemotactic activity), the “drop in activity relative to F-Leu-Trp-Met” value is recorded as 40 fold.

Consider F-Met, for which the “induction of lysozyme release at highest concentrations” value (“induction of lysozyme release” below) in the experiment with rabbit neutrophils [3] was “did not induce release”. Moreover, in the experiment on rabbit neutrophils [4], the “beta-Glucuronidase release Relative activity ± SE” value is recorded as more than 0.00001 and the “induction of beta-glucuronidase release at highest concentrations” value (shortened to “induction of beta-glucuronidase release”) is on record as “did not induce release”.

Turning to F-Met-Glu, the “chemotactic activity compared with F-Met-Leu” value in experiment [1] is reported as “distinctly less active”.

With F-Met-His, the “chemotactic activity compared with F-Met-Leu” value in experiment [1] is “distinctly less active”.

On to F-Met-Leu, for which the “Lysozyme release Relative activity ± SE” value in the experiment on rabbit neutrophils [3] (Table III, relative to F-Met-Leu = 1.0) came out at 1. In addition, in the experiment on rabbit neutrophils [4], the “beta-Glucuronidase release Relative activity ± SE” value was 1. Moreover, in the experiment on neutrophils, the “effect on initial rates of erythrophagocytosis” value is reported as “inhibit”.

F-Met-Leu-Arg: the “activity relative to F-Met-Leu as stated in running text” value (shortened to “activity relative to F-Met-Leu”) in experiment [2] (chemotactic activity) is “one-third”.

Take F-Met-Leu-Glu: the “times as active as F-Met-Leu, experiment of Fig. 1” value (“times as active as F-Met-Leu” below) in experiment [2] came to 0.71.

F-Met-Leu-Leu: in experiment [2] (chemotactic activity), the “activity relative to F-Met-Leu” value turned out to be 9 fold.

As to F-Met-Leu-Phe, the “fold more active than the corresponding unformylated peptide” value in experiment [2] (chemotactic activity) is given as “approximately 10,000 fold”. In addition, in experiment [2] (chemotactic activity), the “activity relative to F-Met-Leu” value was 5,000 fold. Further, the “times as active as F-Met-Leu” value in experiment [2] is given as 7,300. Besides, the “measured mean distance from top of filter to front two PMNs” value (“measured mean distance from top” below) in experiment [5] (Table I A, uniform 1.66 x 10^-10 M above and below, 60 min 37C) was determined as 71 µm; in experiment [5] (Table I A, uniform 1.85 x 10-11 M above and below, 60 min 37C), 40 µm; in experiment [5] (Table I A, uniform 5 x 10^-10 M above and below, 60 min 37C) it was 73 µm; in experiment [5] (Table I A, uniform 5.55 x 10-11 M above and below, 60 min 37C), 60 µm. In addition, in experiment [5], the “nature of induced migration” value is on record as “truly chemotactic”.

Take F-Met-Met-Ala: in experiment [2] (chemotactic activity), the “activity relative to F-Met-Met (Discussion)” value is given as “essentially the same” and the “activity relative to parent dipeptide F-Met-Met (Results)” value was “same activity”.

For F-Met-Met-Met, in experiment [2] (chemotactic activity), the “activity relative to parent dipeptide F-Met-Met (Results)” value was 120- to 150 fold. In experiment [2] (chemotactic activity), the “fold more active than the corresponding unformylated peptide” value was “approximately 20,000 fold”. The “measured mean distance from top” value was found to be 56 µm in experiment [5] (Table I B, above 10^-6 M, below 10^-6 M (uniform), 80 min 37C); 48 µm in experiment [5] (Table I B, above 10^-6 M, below 10^-7 M, 80 min 37C); 34 µm in experiment [5] (Table I B, above 10^-6 M, below 10^-8 M, 80 min 37C); 38 µm in experiment [5] (Table I B, above 10^-6 M, below 10^-9 M, 80 min 37C); 60 µm in experiment [5] (Table I B, above 10^-7 M, below 10^-6 M, 80 min 37C); 34 µm in experiment [5] (Table I B, above 10^-7 M, below 10^-7 M (uniform), 80 min 37C). In addition, the “measured mean distance from top” value is given as 36 µm in experiment [5] (Table I B, above 10^-7 M, below 10^-8 M, 80 min 37C); 34 µm in experiment [5] (Table I B, above 10^-7 M, below 10^-9 M, 80 min 37C); 62 µm in experiment [5] (Table I B, above 10^-8 M, below 10^-6 M, 80 min 37C); 47 µm in experiment [5] (Table I B, above 10^-8 M, below 10^-7 M, 80 min 37C); 30 µm in experiment [5] (Table I B, above 10^-8 M, below 10^-8 M (uniform), 80 min 37C); 27 µm in experiment [5] (Table I B, above 10^-8 M, below 10^-9 M, 80 min 37C). In addition, the “measured mean distance from top” value is 69 µm in experiment [5] (Table I B, above 10^-9 M, below 10^-6 M, 80 min 37C); 57 µm in experiment [5] (Table I B, above 10^-9 M, below 10^-7 M, 80 min 37C); 30 µm in experiment [5] (Table I B, above 10^-9 M, below 10^-8 M, 80 min 37C). In addition, the “calculated distance for purely random migration (bracketed)” value was 52 µm in experiment [5] (Table I B, above 10^-6 M, below 10^-7 M); 52 µm in experiment [5] (Table I B, above 10^-6 M, below 10^-8 M); 52 µm in experiment [5] (Table I B, above 10^-6 M, below 10^-9 M); 38 µm in experiment [5] (Table I B, above 10^-7 M, below 10^-6 M); 34 µm in experiment [5] (Table I B, above 10^-7 M, below 10^-8 M); 33 µm in experiment [5] (Table I B, above 10^-7 M, below 10^-9 M). Besides, the “calculated distance for purely random migration (bracketed)” value in experiment [5] (Table I B, above 10^-8 M, below 10^-6 M) is listed as 35 µm; in experiment [5] (Table I B, above 10^-8 M, below 10^-7 M) it was 30 µm; in experiment [5] (Table I B, above 10^-8 M, below 10^-9 M) it was 30 µm; in experiment [5] (Table I B, above 10^-9 M, below 10^-6 M), 35 µm; in experiment [5] (Table I B, above 10^-9 M, below 10^-7 M), 30 µm; in experiment [5] (Table I B, above 10^-9 M, below 10^-8 M), 27 µm. Also, the “nature of induced migration” value in experiment [5] is listed as “truly chemotactic”.

Take F-Met-Met-Phe: in experiment [2] (chemotactic activity), the “activity relative to parent dipeptide F-Met-Met (Results)” value was 3,500-4,000 fold.

For the compound F-Met-Phe-Leu, the “fold more active than the corresponding unformylated peptide” value in experiment [2] (chemotactic activity) is listed as “around 3,000 fold”.

As to Met-Leu-Glu, the “times less active than F-Met-Leu-Phe” value in experiment [2] (induced migration and enzyme release) came to 26 million. Also, the “induction of lysozyme release” value in the experiment on rabbit neutrophils [3] is “did not induce release”. Besides, the “induction of beta-glucuronidase release” value in the experiment with rabbit neutrophils [4] was “did not induce release”.

Met-Leu-Leu: the “induction of lysozyme release” value in the experiment with rabbit neutrophils [3] is given as “did not induce release”. Moreover, in the experiment on rabbit neutrophils [4], the “beta-Glucuronidase release Relative activity ± SE” value is on record as more than 0.0001 and the “induction of beta-glucuronidase release” value is recorded as “did not induce release”.

As for Met-Leu-Phe, the “times as active as F-Met-Leu” value in experiment [2] stood at 0.43.

Consider Met-Met-Ala, for which the “induction of lysozyme release” value with rabbit neutrophils [3] is given as “did not induce release”. Besides, in the experiment with rabbit neutrophils [4], the “beta-Glucuronidase release Relative activity ± SE” value is reported as more than 0.0001 and the “induction of beta-glucuronidase release” value is recorded as “did not induce release”.

On to Met-Phe-Leu, for which the “induction of lysozyme release” value in the experiment on rabbit neutrophils [3] is on record as “did not induce release”. Also, in the experiment on rabbit neutrophils [4], the “beta-Glucuronidase release Relative activity ± SE” value is recorded as more than 0.0001 and the “induction of beta-glucuronidase release” value is given as “did not induce release”.
